The record followed here is patent US7217827B2, “Halogen-containing aromatic compound” (Nippon Shokubai Co., Ltd., priority 2001, dated 2007).

The nature of this data set: Solubility to dimethylacetoamide at 25° C., solution then left standing for a night. To be noted: for solubility to dimethylacetoamide: at 25° C.; for precipitation from the dimethylacetoamide solution on standing: solution left standing for a night.

`O=C1OC(=O)c2c(F)c(Oc3c(Cl)c(Cl)c(Oc4c(F)c(F)c5c(c4F)C(=O)OC5=O)c(Cl)c3Cl)c(F)c(F)c21` [Example 1, 1,4-bis(3,4-dicarboxytrifluorophenoxy)tetrachlorobenzene dianhydride]: the solubility to dimethylacetoamide is on record as 22 wt. % and the “precipitation from the dimethylacetoamide solution on standing” value is “precipitations were not found”.

Take `Nc1c(F)c(N)c(F)c(Cl)c1F` [Example III-1, 5-chloro-2,4,6-trifluoro-m-phenylenediamine]: the solubility to dimethylacetoamide was 68 wt. % and the “precipitation from the dimethylacetoamide solution on standing” value is listed as “precipitations were not found”.
